Twelve compounds from ChEMBL document CHEMBL1201862, “PubChem BioAssay data set” (2004) can be followed below.

Among the test systems are OVCAR-4; NCI-H460; HL-60; HT-29; LOX IMVI; 786-0; NCI-H226; NCI-H23; HCC 2998; NCI/ADR-RES; SNB-19; UACC-62; NCI-H522; MOLT-4; U-251; SN12C; IGROV-1; A498; RXF 393.
Holding throughout (assay): DTP human tumour cell line panel, 48 h

Each structure is given as a SMILES string.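 Values below derive from 48-hour exposures of cells grown in 96-well plates, with endpoints linearly interpolated between the two concentrations bracketing the appropriate inhibition level. GI50: concentration for 50% inhibition of growth.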 Calls of active or inactive are those of the source. Rule as the data show it: active = GI50 up to about 1.1 µM and inactive = higher. Some results are limits rather than exact numbers.

The GI50 is the concentration giving 50% growth inhibition. On to `O=C(O)c1cc(/C=C/c2cc(O)ccc2O)ccc1O`, for which the GI50 in the assay on OVCAR-4, with NCI-H460, with HL-60, in the assay on HT-29, in the assay on LOX IMVI and in the assay with 786-0 was > 10 µM (inactive) each time. In addition, the GI50 in the assay on NCI-H226, with NCI-H23, in the assay on HCC 2998, in the assay on NCI/ADR-RES, in the assay on SNB-19 and with UACC-62 was > 10 µM (inactive) in each case. Further, the GI50 in the assay with NCI-H522, in the assay with MOLT-4, in the assay on U-251 and with SN12C was > 10 µM (inactive) throughout.
For the compound `CCOc1ccc(Nc2nc(N)nc(N)c2N)cc1`, the GI50 in the assay on OVCAR-4 is 18.4 µM (inactive); with NCI-H460 it was 29.1 µM (inactive); in the assay on HL-60, 39.1 µM (inactive); in the assay with HT-29, 17.8 µM (inactive); in the assay on LOX IMVI it was 36.2 µM (inactive); in the assay with 786-0 it was 22.3 µM (inactive). Further, the GI50 with NCI-H226 was 42.2 µM (inactive); with NCI-H23, 26.8 µM (inactive); in the assay on NCI/ADR-RES it was 37 µM (inactive); with IGROV-1 it was 11.6 µM (inactive); in the assay on A498 it was > 100 µM (inactive); in the assay on SNB-19 it was 25.2 µM (inactive). For the same compound, the GI50 in the assay on UACC-62 was 32.7 µM (inactive); in the assay on NCI-H522, 26 µM (inactive); with MOLT-4, 19.8 µM (inactive); in the assay on U-251, 24.1 µM (inactive); in the assay on SN12C, > 10 µM (inactive).
`C=CCCCN1C(=O)C2C3c4ccccc4C(C=O)(c4ccccc43)C2C1=O` (configuration not stated): the GI50 is 11.4 µM (inactive) in the assay with OVCAR-4; 15.2 µM (inactive) in the assay on NCI-H460; 9.89 µM (inactive) with HL-60; 10 µM (inactive) in the assay with HT-29; 6.07 µM (inactive) with LOX IMVI; 13.3 µM (inactive) in the assay on 786-0. In addition, the GI50 with NCI-H23 was 12.4 µM (inactive); with HCC 2998 it was 14.7 µM (inactive); with NCI/ADR-RES, 10.9 µM (inactive); with IGROV-1, 13.6 µM (inactive); in the assay with SNB-19 it was 13.1 µM (inactive); with UACC-62, 9.42 µM (inactive). Besides, the GI50 was 8.57 µM (inactive) in the assay on NCI-H522, 4.57 µM (inactive) with MOLT-4, 11.2 µM (inactive) in the assay with U-251 and 7.93 µM (inactive) in the assay with SN12C.
Consider `COc1ccc(-c2nc(-c3cnccn3)n(C/C=C/c3ccccc3)n2)cc1`, for which the GI50 was 21.3 µM (inactive) in the assay on OVCAR-4; > 100 µM (inactive) in the assay on NCI-H460; > 100 µM (inactive) in the assay on HL-60; > 100 µM (inactive) with HT-29; > 100 µM (inactive) in the assay with LOX IMVI; 17.3 µM (inactive) in the assay with 786-0. Besides, the GI50 was > 100 µM (inactive) in the assay with NCI-H23; > 100 µM (inactive) with HCC 2998; 83.4 µM (inactive) in the assay with NCI/ADR-RES; 48.1 µM (inactive) in the assay with IGROV-1; 37.2 µM (inactive) in the assay on SNB-19; 35.2 µM (inactive) in the assay on UACC-62. The GI50 was 32.8 µM (inactive) in the assay on NCI-H522, > 100 µM (inactive) with MOLT-4, 46.7 µM (inactive) with U-251 and > 100 µM (inactive) in the assay with SN12C.
For `COCC[N+](CCNC(=O)c1cccc2c(N)c3cccc(C)c3nc12)(CCOC)Cc1ccc([N+](=O)[O-])cc1`, the GI50 in the assay with OVCAR-4 is 43.3 µM (inactive); in the assay on NCI-H460, 6.47 µM (inactive); in the assay on HL-60, 12.9 µM (inactive); in the assay on HT-29, 18.8 µM (inactive); in the assay with LOX IMVI, 23.1 µM (inactive); in the assay with 786-0 it was 19.1 µM (inactive). The GI50 in the assay on NCI-H23 is 29.8 µM (inactive); in the assay on HCC 2998 it was 4.92 µM (inactive); in the assay with NCI/ADR-RES, 88.3 µM (inactive); with IGROV-1, 11.1 µM (inactive); with SNB-19 it was 40.4 µM (inactive); in the assay with UACC-62, 16 µM (inactive). Also, the GI50 is 5.37 µM (inactive) in the assay with NCI-H522, 3.57 µM (inactive) in the assay with MOLT-4, 19.8 µM (inactive) with U-251 and 32.9 µM (inactive) with SN12C.
For the compound `COC(=O)C1C(O)CCC2CN3CCc4c([nH]c5cccc(OC)c45)C3CC21` (configuration not stated), the GI50 is 59.2 µM (inactive) in the assay on RXF 393; > 100 µM (inactive) in the assay with OVCAR-4; > 100 µM (inactive) in the assay with NCI-H460; > 100 µM (inactive) with HL-60; > 100 µM (inactive) in the assay with HT-29; > 100 µM (inactive) in the assay on LOX IMVI. Moreover, the GI50 in the assay with 786-0, with NCI-H226, with NCI-H23, in the assay on HCC 2998, in the assay with IGROV-1 and with A498 was > 100 µM (inactive) each time. The GI50 in the assay on SNB-19, with UACC-62, in the assay with NCI-H522, in the assay on MOLT-4, with U-251 and in the assay with SN12C was > 100 µM (inactive) each time.
`O=C(c1ccc(Cl)cc1Cl)N(/N=C/C=C/c1ccccc1)c1nnc(-c2ccccc2)c(-c2ccccc2)n1`: the GI50 with RXF 393, in the assay with OVCAR-4, with NCI-H460, in the assay on HL-60, with HT-29 and in the assay with LOX IMVI was > 100 µM (inactive) in each case. Further, the GI50 in the assay with 786-0, in the assay with NCI-H226, with NCI-H23, in the assay with HCC 2998, in the assay with IGROV-1 and in the assay with A498 was > 100 µM (inactive) throughout. Besides, the GI50 with SNB-19 is > 100 µM (inactive); with UACC-62 it was > 100 µM (inactive); in the assay on NCI-H522, 21.8 µM (inactive); in the assay on MOLT-4 it was 70 µM (inactive); with U-251, > 100 µM (inactive); in the assay with SN12C, > 100 µM (inactive).
On to `Cn1c2c(c3ccccc31)CC(=S)N1CCCC(CC2O)C1` (configuration not stated), for which the GI50 in the assay with OVCAR-4, in the assay on NCI-H460, in the assay with HT-29, in the assay with LOX IMVI, in the assay with 786-0 and in the assay on NCI-H226 was > 100 µM (inactive) throughout. Also, the GI50 was > 100 µM (inactive) with NCI-H23; > 100 µM (inactive) with HCC 2998; > 100 µM (inactive) in the assay with NCI/ADR-RES; > 100 µM (inactive) with A498; > 100 µM (inactive) with SNB-19; 91.2 µM (inactive) with UACC-62. The GI50 in the assay on NCI-H522, in the assay with U-251 and in the assay on SN12C was > 100 µM (inactive) throughout.
In the case of `CC(=O)c1sc2c(c1OC(=O)c1ccco1)c(=O)n(-c1ccccc1)c(=S)n2-c1ccccc1`, the GI50 was 12.9 µM (inactive) in the assay with RXF 393; 28.9 µM (inactive) with OVCAR-4; 31 µM (inactive) in the assay on NCI-H460; 19.8 µM (inactive) with HL-60; 6 µM (inactive) with HT-29; 14 µM (inactive) with LOX IMVI. The GI50 in the assay with 786-0 was 26.7 µM (inactive); in the assay with NCI-H226, 3.58 µM (inactive); in the assay on NCI-H23, 26.9 µM (inactive); in the assay with NCI/ADR-RES it was 18.4 µM (inactive); in the assay on IGROV-1, 23.1 µM (inactive); in the assay with SNB-19, 28.2 µM (inactive). Moreover, the GI50 with UACC-62 is > 10 µM (inactive); with NCI-H522, 19.9 µM (inactive); in the assay on MOLT-4, 19.5 µM (inactive); in the assay with U-251, 23.3 µM (inactive); in the assay on SN12C, 26 µM (inactive).
As to `Cc1oc2c(c1C)S(=O)(=O)C(C#N)=CN2`, the GI50 with OVCAR-4, in the assay with NCI-H460, with HT-29, with LOX IMVI, in the assay with 786-0 and in the assay on NCI-H226 was > 100 µM (inactive) in each case. Further, the GI50 in the assay on NCI-H23, in the assay with HCC 2998, in the assay on NCI/ADR-RES, with IGROV-1, in the assay with A498 and with SNB-19 was > 100 µM (inactive) throughout. The GI50 in the assay with UACC-62, in the assay on NCI-H522, with MOLT-4, in the assay on U-251 and in the assay on SN12C was > 100 µM (inactive) each time.
For the compound `CSc1ccc(/C=C2/C[N+](C)(C)C/C(=C/c3ccc(SC)cc3)C2=O)cc1`, the GI50 is 17 µM (inactive) in the assay on RXF 393; 2.49 µM (inactive) in the assay with HL-60; 13.7 µM (inactive) with 786-0; 32.1 µM (inactive) in the assay on NCI-H226; > 10 µM (inactive) in the assay with NCI-H23; 15.5 µM (inactive) in the assay on HCC 2998. Moreover, the GI50 in the assay with IGROV-1 is 0.185 µM (active); with UACC-62, 0.168 µM (active); with NCI-H522, 7.36 µM (inactive); with MOLT-4, 5.31 µM (inactive); with U-251, 2.54 µM (inactive); in the assay on SN12C, 7.89 µM (inactive).
For `COc1ccc(C2=NN(c3ccccc3)C(c3cc4cc(Br)ccc4nc3Cl)C2)cc1` (configuration not stated), the GI50 is > 25 µM (inactive) in the assay with RXF 393; 20.3 µM (inactive) in the assay on OVCAR-4; > 25 µM (inactive) in the assay with HL-60; > 25 µM (inactive) in the assay with HT-29; > 25 µM (inactive) with LOX IMVI; > 25 µM (inactive) in the assay with 786-0. Also, the GI50 is > 25 µM (inactive) with NCI-H226; > 25 µM (inactive) in the assay with NCI-H23; > 25 µM (inactive) in the assay with NCI/ADR-RES; 15.2 µM (inactive) in the assay on IGROV-1; > 25 µM (inactive) in the assay with SNB-19; 16.7 µM (inactive) in the assay with NCI-H522. The GI50 in the assay on MOLT-4 and in the assay with SN12C was > 25 µM (inactive) in each case.
